According to ChEMBL document CHEMBL4251565, “Functionalized 2,1-benzothiazine 2,2-dioxides as new inhibitors of Dengue NS5 RNA-dependent RNA polymerase” (Eur J Med Chem, 2018):
The source made the active and inactive calls. No cut-off for these calls is given here.

What was measured:
[1] = target: Nonstructural protein 5 (Dengue virus) (UniProt V5TFZ2); experiment: Inhibition of DENV3 NS5 RdRp using ss-RNA PolyC as template and GTP as substrate assessed as decrease in dsRNA levels after 1 hr in presence of tritonX100 by PicoGreen-based fluorescence assay; details: dengue virus type 3
[2] = target: Nonstructural protein 5 (Dengue virus) (UniProt V5TFZ2); experiment: Binding affinity to DENV3 NT-647-NHS labeled NS5 RdRp after 1 hr in presence of ss-RNA PolyC as template and GTP as substrate by microscale thermophoresis method; details: dengue virus type 3
Zika virus = experiment: Antiviral activity against Zika virus clinical strain infected in African green monkey Vero E6 cells assessed as decrease in viral RNA levels up to 20 uM by qRT-PCR method; assay type: functional, organism-based; details: Vero C1008
dengue virus type 3 = experiment: Antiviral activity against DENV3 clinical strain infected in African green monkey Vero E6 cells assessed as decrease in viral RNA levels up to 20 uM by qRT-PCR method; assay type: functional, organism-based; details: Vero C1008
West Nile virus = experiment: Antiviral activity against WNV clinical strain infected in African green monkey Vero E6 cells assessed as decrease in viral RNA levels up to 20 uM by qRT-PCR method; assay type: functional, organism-based; details: Vero C1008
dengue virus type 2 = experiment: Antiviral activity against DENV2 clinical strain infected in African green monkey Vero E6 cells assessed as decrease in viral RNA levels up to 20 uM by qRT-PCR method; assay type: functional, organism-based; details: Vero C1008
[3] = test system: O=C(OC1=CS(=O)(=O)Nc2ccc(Oc3ccccc3Br)cc21)c1ccc(F)c(F)c1; experiment: Mixed type inhibition of DENV3 NS5 RdRp using increasing concentration of ss-RNA PolyC as template assessed as Km for substrate after 1 hr in presence of GTP substrate after 1 hr by Lineweaver-Burk double reciprocal plot analysis; details: dengue virus type 3
[4] = test system: O=C(OC1=CS(=O)(=O)Nc2ccc(Oc3ccccc3Br)cc21)c1ccc(F)c(F)c1; experiment: Mixed type inhibition of DENV3 NS5 RdRp using increasing concentration of GTP as substrate assessed as enzyme Vmax after 1 hr in presence of ss-RNA PolyC template by Lineweaver-Burk double reciprocal plot analysis; details: dengue virus type 3
[5] = test system: O=C(OC1=CS(=O)(=O)Nc2ccc(Oc3ccccc3Br)cc21)c1ccc(F)c(F)c1; experiment: Mixed type inhibition of DENV3 NS5 RdRp using increasing concentration of ss-RNA PolyC as template assessed as enzyme Vmax after 1 hr in presence of GTP substrate by Lineweaver-Burk double reciprocal plot analysis; details: dengue virus type 3
[6] = test system: O=C(OC1=CS(=O)(=O)Nc2ccc(Oc3ccccc3Br)cc21)c1ccc(F)c(F)c1; experiment: Mixed type inhibition of DENV3 NS5 RdRp using increasing concentration of GTP as substrate assessed as Km for substrate after 1 hr in presence of ss-RNA PolyC template by Lineweaver-Burk double reciprocal plot analysis; details: dengue virus type 3

Question: How did the inhibition [1] turn out when `O=C(OC1=CS(=O)(=O)Nc2ccc(Oc3ccccc3Br)cc21)c1ccc(F)c(F)c1` was run?
Answer: Active

Question: What about the Activity [2] of the same compound?
Answer: Active

Question: What about the Activity (Zika virus) of the same compound?
Answer: inactive

Question: What about the Activity (dengue virus type 3) of the same compound?
Answer: inactive

Question: What about the Activity (West Nile virus) of the same compound?
Answer: inactive

Question: And the Activity (dengue virus type 2)?
Answer: inactive

Question: For “Nonstructural protein 5 (Dengue virus), V5TFZ2”, which Km [3] is on record?
Answer: 0.907 µM

Question: And the Vmax [4]?
Answer: 15.8 nM/min

Question: And the Vmax [5]?
Answer: 23.2 nM/min

Question: And the Km [6]?
Answer: 5.29 µM
